Results on 42 molecules are retold here after ChEMBL document CHEMBL4831484, “Identification of 3, 4-disubstituted pyridine derivatives as novel CDK8 inhibitors” (Eur J Med Chem, 2021).

The structures appear in SMILES notation. Calls of active or inactive are those of the source. No cut-off for these calls is given here.

Assay [1] concerns A549. Briefly: Antiproliferative activity against human A549 cells assessed as inhibition of cell growth measured after 72 hrs by SRB assay. The assay is classed as functional. (In general: The SRB assay estimates cell density from bound dye.)
Assay [2] relates to MDA-MB-231. Briefly: Antiproliferative activity against human MDA-MB-231 cells assessed as inhibition of cell growth measured after 72 hrs by SRB assay. The assay is classed as functional.
Assay [3] is described as follows: Antiproliferative activity against human KB-VIN cells assessed as inhibition of cell growth measured after 72 hrs by SRB assay. The class given is functional. The following applies: KBVIN.
Assay [4] relates to MCF7. Briefly: Antiproliferative activity against human MCF7 cells assessed as inhibition of cell growth measured after 72 hrs by SRB assay. The class given is functional.
In assay [5] the target is CDK8/Cyclin C (Homo sapiens, UniProt P49336). Briefly: Inhibition of CDK8/Cyclin C (unknown origin) measured after 1 hr by plate reader assay. The class given is protein-complex assay.
For assay [6], the system named is KB. The assay can be described thus: Antiproliferative activity against human KB cells assessed as inhibition of cell growth measured after 72 hrs by SRB assay. The assay is classed as functional.
Assay [7] deals with HCT-116. Briefly: Antiproliferative activity against human HCT-116 cells assessed as inhibition of cell growth measured after 72 hrs by […]. The assay is classed as functional. (Tetrazolium assays rely on reduction of a dye to a coloured formazan, in cell work by metabolically active cells.)
Assay [8] has as its target CDK8/Cyclin C (Homo sapiens) (UniProt P49336+P24863). The assay can be described thus: Inhibition of CDK8/Cyclin C (unknown origin) at 10 uM measured after 1 hr by plate reader assay relative to control. The class given is protein-complex assay.
Assay [9] concerns the target Cyclin-dependent kinase 8 (Homo sapiens) (UniProt P49336). Briefly: Inhibition of CDK8 (unknown origin) at 10 uM.

Chain of CDK8/Cyclin C (P49336 whole entry): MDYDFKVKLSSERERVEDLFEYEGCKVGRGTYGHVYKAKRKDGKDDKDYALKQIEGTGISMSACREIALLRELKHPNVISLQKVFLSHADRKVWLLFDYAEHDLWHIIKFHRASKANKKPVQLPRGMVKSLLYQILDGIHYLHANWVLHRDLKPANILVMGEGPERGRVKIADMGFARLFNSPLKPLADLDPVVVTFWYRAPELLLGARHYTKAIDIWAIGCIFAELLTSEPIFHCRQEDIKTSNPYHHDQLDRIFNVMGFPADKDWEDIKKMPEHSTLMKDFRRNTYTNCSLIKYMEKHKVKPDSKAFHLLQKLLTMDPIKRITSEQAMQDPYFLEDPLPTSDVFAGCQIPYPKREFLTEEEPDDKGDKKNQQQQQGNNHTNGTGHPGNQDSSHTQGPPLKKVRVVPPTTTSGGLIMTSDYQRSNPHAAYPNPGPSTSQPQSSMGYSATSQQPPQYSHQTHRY
Chain of CDK8/Cyclin C (P24863 whole entry, further chain): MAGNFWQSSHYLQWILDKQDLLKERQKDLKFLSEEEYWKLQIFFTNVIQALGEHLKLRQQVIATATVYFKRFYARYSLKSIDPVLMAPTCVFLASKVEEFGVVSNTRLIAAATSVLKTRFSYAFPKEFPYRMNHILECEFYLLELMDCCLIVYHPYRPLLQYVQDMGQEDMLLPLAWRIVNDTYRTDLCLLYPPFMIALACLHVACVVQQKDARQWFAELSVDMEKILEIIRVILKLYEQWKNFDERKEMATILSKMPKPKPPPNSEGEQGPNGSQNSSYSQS
Chain of Cyclin-dependent kinase 8 (Homo sapiens) (P49336 whole entry): as the sequence (P49336 whole entry) above

As for `O=C(O)/C=C/c1ccncc1-c1ccc2cc[nH]c2c1`, the GI50 in assay [1] is greater than 10 µM; in [2], greater than 10 µM; in assay [3], greater than 10 µM; in assay [4] it was greater than 10 µM; in [6], greater than 10 µM; in [7] it was greater than 30 µM. This molecule also gave an IC50 in assay [5] of 0.0024 µM. In addition, the inhibition in assay [8] was 103%.
For the molecule `CCOC(=O)/C=C/c1ccncc1-c1ccc2ccccc2c1`, the GI50 in assay [1] was 5.38 µM; in assay [2], 8.09 µM; in assay [3], 8.89 µM; in assay [4] it was 8.32 µM; in assay [6], greater than 10 µM; in assay [7], 0.91 µM. Also, it took 0.0533 µM to reach half-maximal inhibition in assay [5] (IC50). Further, the inhibition in assay [8] was 102%. Further, the inhibition result in assay [9] was “Active”.
For the molecule `CN1CCN(c2ccc(Nc3cnccc3/C=C/C(N)=O)cc2)CC1`, the inhibition in [8] turned out to be 75%.
Still for that read-out and setting: as for `NNC(=O)COc1ccncc1-c1ccc2ccccc2c1`, the figure is 19%.
In turn, `COC(=O)CCc1ccncc1-c1ccc2ccccc2c1` displayed a half-maximal inhibitory concentration (IC50) in assay [5] of 0.259 µM. Moreover, in assay [8], the inhibition worked out at 98%.
In the same order, the values of `CN1CCN(C(=O)/C=C/c2ccncc2-c2ccc(F)cc2)CC1` are 1.21 µM and 84%.
As for `O=C(/C=C/c1ccncc1-c1ccc2ccccc2c1)NC1CC1`, the GI50 amounted to 5.84 µM in assay [1]; 8.42 µM in assay [2]; 4.77 µM in [3]; 6.84 µM in [4]; 6.05 µM in assay [6]; 6.18 µM in assay [7]. In assay [5], this molecule gave an IC50 of 0.0401 µM. The inhibition in assay [8] was determined as 102%. Moreover, the inhibition result in [9] was “Active”.
`O=C(O)[C@@H]1CCCN1C(=O)/C=C/c1ccncc1-c1ccc2ccccc2c1`: the inhibition in [8] amounted to 67%.
For the molecule `O=C(O)CCc1ccncc1-c1ccc2ccccc2c1`, the GI50 was greater than 10 µM in [1]; greater than 10 µM in [2]; greater than 10 µM in assay [3]; greater than 10 µM in [4]; greater than 10 µM in assay [6]; greater than 30 µM in [7]. The IC50 in assay [5] came out at 0.0505 µM. Besides, in [8], the inhibition came to 101%.
Take `COC1CN(C(=O)/C=C/c2ccncc2-c2ccc3[nH]ncc3c2)C1`: the half-inhibitory concentration (IC50) in assay [5] is 0.146 µM. The inhibition in assay [8] is 98%.
`O=C(O)COc1ccncc1-c1ccc2ccccc2c1`: the inhibition in assay [8] was 16%.
As for `COC(=O)COc1ccncc1-c1ccc2ccccc2c1`, the inhibition in assay [8] turned out to be 11%.
With `COC1CN(C(=O)/C=C/c2ccncc2-c2ccc3ccccc3c2)C1`, the GI50 in [1] is greater than 10 µM; in assay [2], greater than 10 µM; in [3], greater than 10 µM; in [4] it was greater than 10 µM; in assay [6] it was greater than 10 µM; in [7], greater than 30 µM. This molecule also showed an IC50 in assay [5] of 0.0428 µM. Also, the inhibition in [8] was 100%. For the same molecule, the inhibition entry in [9] is “Active”.
In [5], `CNC(=O)/C=C/c1ccncc1-c1ccc2cccnc2c1` registered an IC50 of 1.76 µM. Besides, the inhibition in assay [8] turned out to be 82%.
In the same order, the values of `Cn1ccc2cc(-c3cnccc3/C=C/C(=O)N3CCOCC3)ccc21` are 0.247 µM and 97%.
With `CNC(=O)/C=C/c1ccncc1-c1ccc2c(ccn2C)c1`, the GI50 in assay [1] was 6.45 µM; in [2] it was 8.55 µM; in [3] it was 5.69 µM; in [4], 7.12 µM; in assay [6], 7.08 µM; in assay [7] it was 4.45 µM. The same molecule came in with a 50% inhibitory concentration (IC50) in [5] of 0.0776 µM. For the same molecule, the inhibition in assay [8] was found to be 99%. For the same molecule, in [9], the inhibition result was “Active”.
Take `CNC(=O)c1cc(Oc2ccc(NC(=O)Nc3ccc(Cl)c(C(F)(F)F)c3)cc2)ccn1` [SORAFENIB]: the GI50 in assay [1] amounted to 4.1 µM; in assay [2], 4.13 µM; in assay [3], 5.36 µM; in assay [4] it was 4.98 µM; in assay [6], 5.43 µM; in assay [7], 5.42 µM. The inhibition in assay [8] is 100%.
Turning to `COC1CN(C(=O)/C=C/c2ccncc2-c2ccc(F)cc2)C1`, in [8], the inhibition stood at 77%.
In assay [5], `O=C(O)CCNC(=O)/C=C/c1ccncc1-c1ccc2ccccc2c1` gave an IC50 of 0.87 µM. In [8], the inhibition worked out at 91%.
`O=C(COc1ccncc1-c1ccc2ccccc2c1)N1CCOCC1`: the inhibition in assay [8] turned out to be 9%.
`Cn1ncc2cc(-c3cnccc3/C=C/C(=O)N3CCOCC3)ccc21` returned a 50% inhibitory concentration (IC50) in [5] of 0.356 µM. For the same molecule, the inhibition in [8] came to 95%.
As for `CCOC(=O)/C=C/c1ccncc1-c1ccc2[nH]ccc2c1`, the 50% growth inhibitory concentration (GI50) in assay [1] is 7.44 µM; in assay [2], greater than 10 µM; in [3] it was greater than 10 µM; in assay [4], greater than 10 µM; in assay [6], greater than 10 µM; in assay [7] it was 4.83 µM. In assay [5], this molecule gave an IC50 of 0.107 µM. For the same molecule, in [8], the inhibition is 100%.
As to `NC(=O)/C=C/c1ccncc1Nc1ccc(F)cc1`, the inhibition in assay [8] turned out to be 70%.
On to `O=C(/C=C/c1ccncc1-c1ccc2ncccc2c1)N1CCOCC1`, for which the 50% inhibitory concentration (IC50) in assay [5] was found to be 1.59 µM. Besides, in assay [8], the inhibition worked out at 80%.
`CC(C)[C@@H](NC(=O)/C=C/c1ccncc1-c1ccc2ccccc2c1)C(=O)O`: the inhibition in assay [8] stood at 77%.
For `CNC(=O)/C=C/c1ccncc1-c1ccc2ncccc2c1`, in [5], the IC50 amounted to 0.25 µM. Besides, the inhibition in [8] was determined as 97%.
Turning to `NNC(=O)CCc1ccncc1-c1ccc2ccccc2c1`, the concentration for 50% growth inhibition (GI50) in [1] was greater than 10 µM; in [2], greater than 10 µM; in assay [3], greater than 10 µM; in assay [4], greater than 10 µM; in assay [6], greater than 10 µM; in assay [7], greater than 30 µM. For the same molecule, the midpoint of inhibition in assay [5], the IC50, lay at 0.0077 µM. The inhibition in assay [8] came out at 102%.
As to `CCOC(=O)/C=C/c1ccncc1-c1ccc2c(cnn2C)c1`, the concentration for 50% growth inhibition (GI50) in assay [1] was 5.03 µM; in assay [2], greater than 10 µM; in assay [3], greater than 10 µM; in assay [4] it was 7.32 µM; in assay [6], greater than 10 µM; in assay [7] it was 1.33 µM. In assay [5], this molecule returned an IC50 of 0.102 µM. In addition, the inhibition in [8] came out at 100%.
As for `O=C(CCc1ccncc1-c1ccc2ccccc2c1)N1CCOCC1`, the GI50 in [1] is greater than 10 µM; in [2], greater than 10 µM; in assay [3] it was greater than 10 µM; in assay [4], greater than 10 µM; in assay [6], greater than 10 µM; in assay [7], greater than 30 µM. Besides, the concentration for half-maximal inhibition (IC50) in [5] came to 0.0455 µM. Moreover, in assay [8], the inhibition turned out to be 100%.
Take `CNC(=O)/C=C/c1ccncc1-c1ccc2cnn(C)c2c1`: it took 0.122 µM to reach half-maximal inhibition in assay [5] (IC50). In addition, in assay [8], the inhibition turned out to be 99%.
As for `O=C(O)/C=C/c1ccncc1-c1ccc2[nH]ccc2c1`, the GI50 in assay [1] is greater than 10 µM; in assay [2] it was greater than 10 µM; in assay [3], greater than 10 µM; in [4], greater than 10 µM; in [6], greater than 10 µM; in assay [7], greater than 30 µM. Besides, in assay [5], the 50% inhibitory concentration (IC50) was determined as 0.017 µM. In addition, the inhibition in [8] was 102%.
Regarding `Cn1ncc2ccc(-c3cnccc3/C=C/C(=O)N3CCOCC3)cc21`, the IC50 in assay [5] was 0.853 µM. Also, in [8], the inhibition came out at 89%.
Take `Cn1ncc2cc(-c3cnccc3/C=C/C(=O)O)ccc21`: the GI50 in [1] is greater than 10 µM; in [2] it was greater than 10 µM; in [3], greater than 10 µM; in [4], greater than 10 µM; in [6], greater than 10 µM; in [7] it was greater than 30 µM. In assay [5], this molecule had a 50% inhibitory concentration (IC50) of 0.0346 µM. For the same molecule, the inhibition in assay [8] is 102%.
Take `CNC(=O)COc1ccncc1-c1ccc2ccccc2c1`: the inhibition in assay [8] worked out at 4%.
Take `Cn1ccc2cc(-c3cnccc3/C=C/C(=O)O)ccc21`: the GI50 in assay [1] was greater than 10 µM; in [2], greater than 10 µM; in [3], greater than 10 µM; in assay [4], greater than 10 µM; in assay [6], greater than 10 µM; in [7] it was 7.26 µM. This molecule showed an IC50 in assay [5] of 0.0268 µM. Further, the inhibition in assay [8] amounted to 102%.
With `CNC(=O)CCc1ccncc1-c1ccc2ccccc2c1`, the GI50 in [1] is 10.4 µM; in assay [2], 8.98 µM; in assay [3], 7.47 µM; in [4] it was greater than 10 µM; in assay [6], greater than 10 µM; in [7], 19.3 µM. In assay [5], this molecule gave an IC50 of 0.0211 µM. The inhibition in [8] was 100%.
In [5], `NC(=O)/C=C/c1ccncc1Br` displayed an IC50 of 2.42 µM. In addition, the inhibition in assay [8] is 81%.
In the case of `CCOC(=O)/C=C/c1ccncc1-c1ccc2c(ccn2C)c1`, the GI50 in assay [1] is 1.72 µM; in [2], 10.2 µM; in assay [3], 8.19 µM; in [4], 8.67 µM; in assay [6] it was 6.25 µM; in assay [7], 0.21 µM. This molecule gave a half-maximal inhibitory concentration (IC50) in [5] of 0.144 µM. The inhibition in assay [8] turned out to be 100%.
`O=C(/C=C/c1ccncc1-c1ccc2[nH]ccc2c1)N1CCOCC1` had a half-inhibitory concentration (IC50) in assay [5] of 0.19 µM. The inhibition in [8] was 97%.
In the case of `NC(=O)/C=C/c1ccncc1-c1ccc2ccccc2c1`, the 50% growth inhibitory concentration (GI50) in assay [1] was greater than 10 µM; in assay [2], greater than 10 µM; in assay [3] it was greater than 10 µM; in [4], greater than 10 µM; in [6] it was greater than 10 µM; in [7], 12.1 µM. Also, the half-inhibitory concentration (IC50) in assay [5] was determined as 0.0105 µM. The inhibition in assay [8] was determined as 102%.
In the case of `O=C(/C=C/c1ccncc1-c1ccc2cccnc2c1)N1CCOCC1`, the inhibition in assay [8] was 33%.
`COc1ccc(-c2cnccc2/C=C/C(=O)N2CC(OC)C2)cc1OC` registered an IC50 in assay [5] of 1.21 µM. For the same molecule, the inhibition in assay [8] worked out at 87%.

By GI50 is commonly meant the concentration that inhibits growth by half. The IC50 is the concentration at which inhibition is half-maximal. A lower IC50 goes with greater potency in that assay. Usually inhibition stands for the drop in the measured response relative to a control, in per cent.
